# Measured values as given in paper PMC4701221, “Novel Promising Estrogenic Receptor Modulators: Cytotoxic and Estrogenic Activity of Benzanilides and Dithiobenzanilides” (PLoS ONE, 2016).
# Numbering of substitutions follows the chain as printed.
# Experiments:
# ERα W383S = biological target: T1, ERα W383S (Homo sapiens, UniProt P03372, W383S); assay: Estrogen Receptor luciferase assay in HEK293 cells transfected with ERα W383S; format: cell-based; conditions: HEK293, Fig 6A
# T1 construct: expressed in transfected cells; host or cells: HEK293
# T1 sequence (P03372 1-595 W383S): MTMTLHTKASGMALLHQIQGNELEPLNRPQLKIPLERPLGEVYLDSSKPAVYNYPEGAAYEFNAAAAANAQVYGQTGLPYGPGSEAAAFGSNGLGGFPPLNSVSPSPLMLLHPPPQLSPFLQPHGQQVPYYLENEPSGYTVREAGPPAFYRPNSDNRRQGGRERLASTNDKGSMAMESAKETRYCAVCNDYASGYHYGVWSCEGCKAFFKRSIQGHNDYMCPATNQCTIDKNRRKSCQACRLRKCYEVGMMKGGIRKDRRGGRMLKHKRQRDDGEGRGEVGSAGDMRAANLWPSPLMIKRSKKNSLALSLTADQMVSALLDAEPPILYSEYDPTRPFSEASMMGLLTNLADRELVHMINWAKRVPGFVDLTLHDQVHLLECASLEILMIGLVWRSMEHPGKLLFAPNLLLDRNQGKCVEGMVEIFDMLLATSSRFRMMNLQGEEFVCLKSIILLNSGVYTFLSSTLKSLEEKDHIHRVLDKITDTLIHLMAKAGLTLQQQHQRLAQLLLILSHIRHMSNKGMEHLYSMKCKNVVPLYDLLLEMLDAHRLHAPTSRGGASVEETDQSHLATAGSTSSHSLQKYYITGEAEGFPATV
# From the text: (§1) To obtain a eukaryotic vector expressing only the ER-α nuclear receptor, a construct was designed by cloning a KpnI-BamHI fragment from plasmid pEGFP-C1-ERα containing the ERα coding sequence that includes a stop signal into the pEGFP-N3 plasmid (Clontech Laboratories, Palo Alto, CA) under the control of the CMV promoter. […] For mock transfections, pEGFP-N3 plasmid was digested with BglII and NotI and religated after polishing DNA ends to remove GFP coding sequence. Plasmid sequence was confirmed by automatic sequencing. Prior to transfection, cells were seeded in 48 well plates at density of 1.5 x 10^4 cells/well and incubated for 24 h to reach a cell confluence of 80–90%. […] MCF-7 cells, which endogenously express ERα receptor, were transfected with p3xERRE/ERE-luciferase plus the pRLTK Renilla luciferase control plasmid (95:5). Firefly and Renilla luciferase activities were measured using the Dual Luciferase Assay System (Promega, Madison, WI, USA), following a standard protocol using a Sirius L luminometer (Berthold Technologies, Bad Wildbad, Germany). Data were expressed as relative changes in luciferase activity and normalized to 100%.
# (§2) Plasmids for the expression of the ERα W383A and ER-α W383S mutated receptors were constructed by the quick change site directed mutagenesis method using plasmid pEGFP-N-ERα as template.
# MDA-MB-231 cells = assay: MTT assay, MDA-MB-231; format: cell-based, human
# Description: (§3) The cell lines used in the cytotoxicity study, besides MCF-12A, were purchased from European Collection of Cell Culture (ECACC, Salisbury, UK): HEK293 (human embryonic kidney, ATTC no. CRL-1573), A549 (Human lung carcinoma, ECACC no. 86012804), CCD39Lu (Human lung fibroblasts, ECACC no. 90110512), MCF-7 (Human breast adenocarcinoma, ECACC no. 86012803) and MDA-MB-231 (Human breast adenocarcinoma ECACC no. 92020424). Cell lines were cultured in DMEM medium without phenol red and supplemented with 10% (v/v) FBS, 1% penicillin-streptomycin and 1% L-glutamine. MCF-12A (ATTC no. […]) was purchased from American Type Culture Collection (ATCC Manassas, VA 20110 USA). MCF-12A cells were kept in 1:1 mixture of Dulbecco’s modified Eagle’s medium and Ham’s F12 medium, 20 ng/ml human epidermal growth factor, 100 ng/ml cholera toxin, 0.01 mg/ml bovine insulin, 500 ng/ml hydrocortisone and 5% horse serum. All cell lines were cultured at 37°C, in a humidified atmosphere containing 5% CO2.
# (§4) Compounds were dissolved in DMSO to the final concentration of […]. A549, CCD39Lu, MCF-7, MDA-MB-231 and MCF-12A cells were seeded in 96 wells plates at density 2x10^4 cells/well and incubated overnight as described above. Subsequently, cells were treated with tested compounds at concentrations: 100 μM; 50 μM; 25μM; 12.5μM; 6 μM; 3 μM; 1.5 μM. […] Cells were incubated 72 h at 37°C in a humidified atmosphere containing 5% CO2 in the cell culture media appropriate for each cell line. Then, the medium was aspirated and 170 μl MTT solution (5mg/ml) was added to each well. Plates were incubated for 2 hours at 37°C, and then plates were centrifuged at 1200 rpm for 3 minutes. The formazan crystals were dissolved in 200 μl DMSO and plates were further agitated on a plate shaker at 300–500 rpm for 10 minutes. Absorbance at 570 nm (with reference wavelenght 650 nm) was measured using a plate reader (Biotek Instruments, Elx-800). Cell viability was calculated as a percentage relative to the control.
# ERα W383A = biological target: T2, ERα W383A (Homo sapiens, UniProt P03372, W383A); assay: Estrogen Receptor luciferase assay in HEK293 cells transfected with ERα W383A; format: cell-based; conditions: HEK293, Fig 6A
# T2 construct: expressed in transfected cells; host or cells: HEK293
# T2 sequence (P03372 1-595 W383A): T1 sequence (P03372 1-595 W383S) with S383A
# From the text: as §1, §2
# MTT assay, CCD39Lu = format: cell-based; conditions: human, CCD39Lu cells (non-tumorigenic lung fibroblasts), read-out: Cytotoxic activity IC50, CCD39Lu
# Description: as §3, §4
compound,measurement,setting,value
Fc1ccc(NC(=S)c2ccc(NC(=S)c3ccc(F)cc3)cc2)cc1 [Compound 18],"Activation of ER dependent transcription, ERα W383S vs wild type",ERα W383S,less active
same,"Toxicity/effect in MTT assay (in words), MDA-MB-231",MDA-MB-231 cells; 72 h,non-significant effects
same,IC50,"MDA-MB-231 cells; Homo sapiens, MDA-MB-231, 72 h, estrogen independent breast adenocarcinoma, read-out: Cytotoxic activity IC50, MDA-MB-231",> 100 µM
same,"Activation of ER dependent transcription, ERα W383A vs wild type",ERα W383A,less active
same,IC50 at 72 h,"MTT assay, CCD39Lu",> 100 µM
